Here are results for one compound from patent publication US20080139604A1, “Method of Treating Atherosclerosis, Dyslipidemias and Related Conditions” (priority 2005, published 2008).

In the assay the test system is DP-independent nicotinic acid induced vasodilation. As to the kind of experiment: nicotinic acid induced vasodilation in mice genetically devoid of the DP receptor. Type of assay: in vivo, mouse. The note with it: mice genetically devoid of the DP receptor (DP1), administration or pre-administration. The protocol:
Thus, some portion of nicotinic acid induced vasodilation may not be dependent on the DP receptor. This DP-independent vasodilation can be inhibited by the administration or pre-administration of aspirin, a COX-1/COX-II inhibitor, to the mice. Human doses range from about 20-25 mg to as high as about 650 mg, administered about one hour to about 30 minutes before the administration of nicotinic acid, up to simultaneous administration, and repeated as necessary up to about every four hours. Thus a combination of DP receptor antagonist and aspirin is particularly effective to suppress nicotinic acid induced flushing in humans, attenuating some or all of the flushing that is not suppressed by the […] or by aspirin alone.

For `CC(=O)Oc1ccccc1C(=O)O` [aspirin], the “inhibition of DP-independent nicotinic acid induced vasodilation” value is on record as “inhibited”.
